SMILES	melting point [°C]
O=C1N(CC2CCCO2)c2ccccc2C12COc1cc(O)ccc12 (stereo unspecified)	72 to 74
O=C1c2cccc(SCCCCCCO)c2C(=O)c2cccc(SCCCCCCO)c21	195 to 196
CS(=O)(=O)c1ccc(-c2nn3c(-c4ccccc4)c(-c4ccccc4)oc3c2-c2ccc(F)cc2)cc1	228 to 229
CC(C)(C)OC(=O)N1CCn2c(c(C(N)=O)c(C#N)c2C2CCN(C(=O)OCc3ccccc3)CC2)C1	90
N#Cc1cccc(CSc2nnc(-c3ccc4nccn4c3)o2)c1	175 to 176
COC(=O)c1cc(Oc2ccc(F)cc2F)ncc1[N+](=O)[O-]	90.2 to 91.4
Cc1cc(N(C)c2ccn(-c3ccccc3)n2)cc(C)c1O	139 to 140
CN(C)C(=N[N+](=O)[O-])N(C#N)Cc1cnc(Cl)s1	152 to 155
CC(C(=O)O)c1cccs1 (stereo unspecified)	75 to 75.5
Oc1noc2ccc(F)cc12	201 to 203
Cc1nc2c(O)cc(C(=O)N(C)C)cc2n1COCC[Si](C)(C)C	150 to 151
CN1Sc2ccccc2C(=O)C1C(=O)Nc1coc2ccccc2c1=O (stereo unspecified)	290
CCCCCCCCCCCCCCCCOC(=O)c1cc(C(=O)OCCCCCCCCCCCCCCCC)cc(S(=O)O)c1	63 to 65
Cc1nc(N2CCN(Cc3ccccn3)C2=O)sc1C(=O)NCc1cccnc1	58 to 61
O=C(OCCc1ccc(OCc2ccc(Cl)cc2)cc1)c1cccnc1	109 to 110
COc1ccc(-c2oncc2CCC(=O)O)cc1OC	169 to 170
COc1cccc(N(CCN2CCC(C(=O)c3ccc(F)cc3)CC2)C(=O)c2ccc(NC(C)=O)cc2)c1	146 to 152
Cc1nccn1-c1cc(C#N)cc(C(F)(F)F)c1	132 to 134
CCc1cc(OCc2ccc(-c3ccccc3-c3nnn(C(c4ccccc4)(c4ccccc4)c4ccccc4)n3)cc2)c2c(n1)CCCN2C(=O)C(F)(F)F	93 to 95
Cc1ccc2c(c1)N=C(N1CCN(C)CC1)c1cscc1O2	222
O=C1c2ccccc2C(Cc2ccnc(Br)c2)(Cc2ccnc(Br)c2)c2ccccc21	182 to 183
Cc1ccc(Oc2ccc3c4c(cccc24)C2=NC(=O)C(C#N)=C23)cc1	232 to 233
CC(=O)SC(CC(=O)c1cccc(C)c1)C(=O)O (stereo unspecified)	74 to 76
CC(C)(C)OC(=O)N1C(CC2CCCCC2)C(C(O)CNS(=O)(=O)C(c2ccccc2)c2ccccc2)OC1(C)C (stereo unspecified)	58 to 65

SMILES	melting point [°C]
Cc1ccc(C(C)(C)C)c(Oc2ccc(O)cc2)c1	102
COc1ccc(/C(=C/C(=O)O)c2cc(F)cc(F)c2)cc1	170 to 172
COc1ccc(-c2cn3ccccc3n2)cc1OC	96
O=C(Nc1cccc(S(=O)(=O)NC2CC2)c1)c1cnn2c(C(F)(F)F)cc(-c3ccc(Cl)cc3)nc12	257
CC(=O)NCc1ccc(CN2CCN(c3ccccc3)CC2)cc1	135 to 136
CCOC(=O)C(NO)NC(C)=O (stereo unspecified)	119 to 121
NC1=C2C=NN=C2N(c2ccc(Cl)c(Cl)c2)CN1c1ccccc1	306 to 307
CC(c1ccc(-c2ccccc2)c(F)c1)c1nc(CCCl)no1 (stereo unspecified)	72 to 72.5
Cc1cc(C2=NN(C(=S)Cl)[C@H](C)Cc3cc4c(cc32)OCO4)ccc1[N+](=O)[O-]	193 to 196
COc1ccc2[nH]c(SCc3ncc(F)c(N4CCOCC4)c3C)nc2c1	84 to 86
Oc1cc2c(cc1Cl)OCO2	95
NC(=O)c1nc(-c2cccc(O)c2)nc2c1[nH]c(=O)n2[C@@H]1CCOC1	353 to 355
Nc1c2c(nc3c(O)cccc13)CCC2	187 to 188
COC(=O)C(=CC(=CN(C)C)c1ccc(C)cc1[N+](=O)[O-])[N+](=O)[O-]	213 to 215
O=[N+]([O-])c1ccc(NS(=O)(=O)c2cccc3ccccc23)cc1	210 to 215
COc1ccc(Br)c(C(=O)NNS(=O)(=O)c2ccccc2)c1	150 to 152
CC=Cc1ccc2c(c1)C(=O)N(c1ccc(C(C)C(=O)OC(C)(C)C)cc1)C2 (stereo unspecified)	125 to 130
CC[C@H](C)[C@H](NC(=O)OC(C)(C)C)C(=O)N[C@H](C(=O)N[C@@H](CC1CCCCC1)[C@@H](O)[C@@H](O)CC(C)C)[C@@H](C)CC	178 to 179
C[Si](C)(C)OC(Cn1ccnc1)(Cn1cncn1)c1ccc(Cl)cc1Cl (stereo unspecified)	82 to 85
Cc1cccc2[nH]nnc12	145 to 146
Cc1cc(SC2=C(O)CC(CCc3ccc(O)cc3)(c3ccccc3)OC2=O)c(C(C)(C)C)cc1CO (stereo unspecified)	199 to 201
OC1c2cc(OCc3ccc4ccccc4n3)ccc2OCCC1Oc1cccnc1 (stereo unspecified)	134 to 136
CCC1(CCCCN2CCc3sc(Cl)cc3C2)C(=O)Nc2ccccc21 (stereo unspecified)	117 to 119
COc1nsc(N[C@@H](CC(C)C)C(=O)N2CCC[C@H]2C(=O)O)n1	89 to 92

SMILES	melting point [°C]
COc1cc(OCc2ccc(C(=O)N(C)C3CCCCC3)cc2)cc(OC)c1OC	116
CNc1cc(NS(=O)(=O)c2ccc(C)cc2)nc(NC)n1	270 to 272
OC1CSC(Oc2cccc(-c3cc(Cl)ccn3)c2)C(O)C1O (stereo unspecified)	97 to 105
Clc1ccc(CNN2C=CN=CC2)cc1	86 to 87
CC(C)(C)C(=O)OC1=CC(=O)C(=O)c2ccccc21	125 to 126
CC(=O)Nn1cc(C)n(C)c1=O	199 to 201
Cc1ccc(-c2ccc(C(=O)Nc3ccc4cc(CN5CCCC5)cnc4c3)cn2)cc1	226 to 228
COc1ccc(OC)c(S(=O)(=O)n2c(CCCC(=O)O)cc3cc(Cl)ccc32)c1	201 to 209
CC12CCC(=O)C([N+](=O)[O-])=C1CCC1C2CCC2(C)C(C(O)CO)CCC12 (stereo unspecified)	183 to 185
CCCC(CCC)(CCC)NC(=O)N(C)C	88
O=C1OC(=O)c2nc3ccc(OC(F)F)cc3cc21	158
CCOC(=O)C(C)CSCC(NC(=O)CCC(N)C(=O)O)C(=O)NCC(=O)O (stereo unspecified)	193 to 194
O=C1CCC(Cn2c(=O)[nH]c3ncc(-c4ccc(O)cc4)nc32)N1 (stereo unspecified)	338 to 340
CN(Cc1ccccc1)c1nc(Cl)ncc1F	47 to 49
C#CCCN1C(=O)c2ccccc2C1=O	137 to 139
CCn1c(=O)c2[nH]c(/C=C/c3ccc(F)c(F)c3)nc2n(CC)c1=O	> 300
CC(C)(C)OC(=O)c1nc(-c2ccc(Cl)cc2Cl)n(-c2ccc(Cl)cc2)c1C#N	210 to 212
Cc1c(OCC(F)(F)C(F)(F)F)ccnc1CSc1nc2ccccc2[nH]1	145 to 146
O=C1Cc2cccc3c2N1CCC3	90 to 93
OCc1ccc(-c2coc(-c3cn([C@H]4CN5CCC4CC5)nn3)c2)cc1	202
NC(=O)c1cccc(OCCCCC/C=C\c2ccsc2)c1	71 to 73
N#CCOc1cccc(COc2ccc(OCc3ccc4ccccc4n3)cc2)c1	110 to 114
COC(=O)c1[nH]c2c(C)ccc(C)c2c1C(N)=O	201 to 202

Source: a melting point compilation (Tetko et al.; mined from patent text by program, amines drawn as free bases though some values may be those of a salt)
